Experimental data reported in US11000491B2, “Amino-aryl-benzamide compounds and methods of use thereof” (HEPANOVA, INC., priority 2017, dated 2021).

Assays:
Assay type in all cases: cell-based
Huh7 cells = assay: LD content in Huh7 cells pre-treated with insulin, Oil-Red-O staining, absorbance OD 540 nm; conditions: Homo sapiens, Huh-7, Huh7 cells, procedure of Example 3; read-out: LD content inhibition (EC50)
Procedure, shortened: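 Huh7 cells, mock-treated or pre-treated with 1 mM insulin, were then exposed to compound at the indicated amounts. Lipid droplets stained with Oil Red O and quantified by absorbance at OD 540 nm.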

SREBP-1 = SREBP-1 expression in cultured primary human hepatocytes; conditions: Homo sapiens, Hepatocyte, procedure of Example 6, read-out: SREBP-1 mRNA inhibition (EC50)
Procedure, shortened: (§1)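 Primary human hepatocytes in culture exposed to a range of HPN-01 derivative concentrations; SREBP-1 and SREBP-2 mRNA expression then measured to assess inhibition.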

SREBP-2 = SREBP-2 expression in cultured primary human hepatocytes; conditions: Homo sapiens, Hepatocyte, procedure of Example 6, read-out: SREBP-2 mRNA inhibition (EC50)
Procedure, shortened: as §1

Row | SMILES | EC50 (Huh7 cells) [nM] | EC50 (SREBP-1) [nM] | EC50 (SREBP-2) [nM]
1 | NC(=O)c1cc(-c2ccc(Cl)cc2)cc(-c2ccc(NC(N)=S)cc2)c1N [HPN-01418, 4′-amino-4-chloro-4″-thioureido-[1,1′:3′,1″-terphenyl]-5′-carboxamide] | 980 | 2690 | 2450
2 | NC(=O)c1cc(-c2ccc(Cl)cc2)cc(-c2ccc(NC(=O)CO)cc2)c1N [HPN-01419, 4′-amino-4-chloro-4″-(2-hydroxyacetamido)-[1,1′:3′,1″-terphenyl]-5′-carboxamide] | 500 | 1820 | 3530
3 | NC(=O)c1cc(-c2ccc(Cl)cc2)cc(-c2ccc(N3CC=NC3=O)cc2)c1N [HPN-01420, 4′-amino-4-chloro-4″-(2-oxo-2,5-dihydro-1H-imidazol-1-yl)-[1,1′:3′,1″-terphenyl]-5′-carboxamide] | 420 | 2140 | 2370
4 | NC(=O)c1cc(-c2ccc(Cl)cc2)cc(-c2ccc(-c3c[nH]nn3)cc2)c1N [HPN-01421, 4′-amino-4-chloro-4″-(1H-1,2,3-triazol-4-yl)-[1,1′:3′,1″-terphenyl]-5′-carboxamide] | 750 | 1510 | 2220
5 | NC(=O)c1cc(-c2ccc(Cl)cc2)cc(Oc2cccc(S(=O)(=O)NCCO)c2)c1N [HPN-01422, 4-amino-4′-chloro-5-(3-(N-(2-hydroxyethyl)sulfamoyl)phenoxy)-[1, 1′-biphenyl]-3-carboxamide] | 1440 | 1520 | 3930
6 | NC(=O)c1cc(-c2ccc(Cl)cc2)cc(OCCc2ccc(S(N)(=O)=O)cc2)c1N [HPN-01423, 4-amino-4′-chloro-5-(4-sulfamoylphenethoxy)-[1,1′-biphenyl]-3-carboxamide] | 810 | 1360 | 2370
7 | NC(=O)c1cc(-c2ccc(Cl)cc2)cc(OCc2ccc(S(N)(=O)=O)cc2)c1N [HPN-01424, 4-amino-4′-chloro-5-((4-sulfamoylbenzyl)oxy)-[1,1′-biphenyl]-3-carboxamide] | 1450 | 2690 | 4310
8 | NC(=O)c1cc(-c2ccc(Cl)cc2)cc(NCCc2ccc(S(N)(=O)=O)cc2)c1N [HPN-01425, 4-amino-4′-chloro-5-((4-sulfamoylphenethyl)amino)-[1,1′-biphenyl]-3-carboxamide] | 6480 | 2830 | 3440
9 | NC(=O)c1cc(-c2ccc(Cl)cc2)cc(NCc2ccc(S(N)(=O)=O)cc2)c1N [HPN-01426, 4-amino-4′-chloro-5-((4-sulfamoylbenzyl)amino)-[1,1′-biphenyl]-3-carboxamide] | 1150 | 11000 | 9400
10 | NC(=O)c1cc(-c2ccc(Cl)cc2)cc(N2CCN(S(N)(=O)=O)CC2)c1N [HPN-01427, 4-amino-4′-chloro-5-(4-sulfamoylpiperazin-1-yl)-[1,1′-biphenyl]-3-carboxamide] | 1110 | 3320 | 3830
11 | NC(=O)c1cc(-c2ccc(Cl)cc2)cc(-c2ccc(S(N)(=O)=O)cn2)c1N [HPN-01428, 4-amino-4′-chloro-5-(5-sulfamoylpyridin-2-yl)-[1,1′-biphenyl]-3-carboxamide] | 1140 | 5650 | 18800
12 | NC(=O)c1cc(-c2ccc(Cl)cc2)cc(-c2ccc(NC(=O)Nc3cccnc3)cc2)c1N [HPN-01429, 4′-amino-4-chloro-4″-(3-(pyridin-3-yl)ureido)-[1,1′:3′,1″-terphenyl]-5′-carboxamide] | 140 | 6690 | 3980
13 | CC(C)NC(=O)Nc1ccc(-c2cc(-c3ccc(Cl)cc3)cc(C(N)=O)c2N)cc1 [HPN-01430, 4′-amino-4-chloro-4″-(3-isopropylureido)-[1,1′:3′,1″-terphenyl]-5′-carboxamide] | 5360 | 1880 | 4370
